Tests used:
Experiment in all cases: relative viability (nuclei count vs DMSO), 5 days (fraction); higher = more cells survive
COR-L23 = system: COR-L23
Method in brief: (§1)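 Lung cancer cell lines in 1536-well plates were dosed by pin tool the day after seeding, either with one drug alone or with a fixed anchor-drug dose plus five library-drug doses (not always all listed) in √10 steps. After 5 days, cells were fixed and their nuclei stained in one step (final 0.05% Triton X-100, 1% formaldehyde, 1 ug/ml Hoechst), then counted on 4× images. Relative viability is the nuclei count in treated wells divided by that in vehicle wells. Values are medians of duplicate plates.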

HOP-62 = system: HOP-62
Method in brief: as §1

UMC-11 = system: UMC-11
Method in brief: as §1

NCI-H1755 = system: NCI-H1755
Method in brief: as §1

NCI-H358 = system: NCI-H358
Method in brief: as §1

COR-L 105 = system: COR-L 105
Method in brief: as §1

NCI-H647 = system: NCI-H647
Method in brief: as §1

NCI-H1734 = system: NCI-H1734
Method in brief: as §1

NCI-H1395 = system: NCI-H1395
Method in brief: as §1

HARA = system: HARA
Method in brief: as §1

NCI-H1792 = system: NCI-H1792
Method in brief: as §1

NCI-H1793 = system: NCI-H1793
Method in brief: as §1

NCI-H2347 = system: NCI-H2347
Method in brief: as §1

NCI-H2009 = system: NCI-H2009
Method in brief: as §1

NCI-H838 = system: NCI-H838
Method in brief: as §1

NCI-H2170 = system: NCI-H2170
Method in brief: as §1

SK-MES-1 = system: SK-MES-1
Method in brief: as §1

NCI-H1355 = system: NCI-H1355
Method in brief: as §1

NCI-H1993 = system: NCI-H1993
Method in brief: as §1

HCC-15 = system: HCC-15
Method in brief: as §1

NCI-H2228 = system: NCI-H2228
Method in brief: as §1

NCI-H522 = system: NCI-H522
Method in brief: as §1

For `O=c1cc(-c2cccc3c2Sc2ccccc2S3)oc(N2CCOCC2)c1` + COc1cccc2cc(-c3nc([C@H]4CC[C@H](C(=O)O)CC4)n4ncnc(N)c34)[nH]c12 [OSI-027] (partner 0.5 µM), the relative viability (COR-L23; first compound 0.08 µM) was 0.8, the relative viability (COR-L23; first compound 0.253 µM) was 1.21 and the relative viability (COR-L23; first compound 0.8 µM) was 0.892. For the same molecule, the relative viability (COR-L23; first compound 2.53 µM) was 0.801, the relative viability (COR-L23; first compound 8 µM) was 1 and the relative viability (HOP-62; first compound 0.08 µM) was 0.888. For the same molecule, the relative viability (HOP-62; first compound 0.253 µM) was 1.17, the relative viability (HOP-62; first compound 0.8 µM) was 0.913 and the relative viability (HOP-62; first compound 2.53 µM) was 0.745. It also gave a relative viability (HOP-62; first compound 8 µM) of 1.07, a relative viability (UMC-11; first compound 0.08 µM) of 0.546 and a relative viability (UMC-11; first compound 0.253 µM) of 0.562. The relative viability (UMC-11; first compound 0.8 µM) was 0.457, the relative viability (UMC-11; first compound 2.53 µM) was 0.429 and the relative viability (UMC-11; first compound 8 µM) was 0.514. It also gave a relative viability (NCI-H1755; first compound 0.08 µM) of 0.71, a relative viability (NCI-H1755; first compound 0.253 µM) of 0.794 and a relative viability (NCI-H1755; first compound 0.8 µM) of 0.682. It also gave a relative viability (NCI-H1755; first compound 2.53 µM) of 0.553, a relative viability (NCI-H1755; first compound 8 µM) of 0.772 and a relative viability (NCI-H358; first compound 0.08 µM) of 0.836. It also gave a relative viability (NCI-H358; first compound 0.253 µM) of 0.999, a relative viability (NCI-H358; first compound 0.8 µM) of 0.815 and a relative viability (NCI-H358; first compound 2.53 µM) of 0.807. The relative viability (NCI-H358; first compound 8 µM) was 0.869, the relative viability (COR-L 105; first compound 0.08 µM) was 0.686 and the relative viability (COR-L 105; first compound 0.253 µM) was 0.707. The relative viability (COR-L 105; first compound 0.8 µM) was 0.636, the relative viability (COR-L 105; first compound 2.53 µM) was 0.686 and the relative viability (COR-L 105; first compound 8 µM) was 0.734. For the same molecule, the relative viability (NCI-H647; first compound 0.08 µM) was 0.636, the relative viability (NCI-H647; first compound 0.253 µM) was 0.813 and the relative viability (NCI-H647; first compound 0.8 µM) was 0.588. It also gave a relative viability (NCI-H647; first compound 2.53 µM) of 0.513, a relative viability (NCI-H647; first compound 8 µM) of 0.623 and a relative viability (NCI-H1734; first compound 0.08 µM) of 0.556. It also gave a relative viability (NCI-H1734; first compound 0.253 µM) of 0.613, a relative viability (NCI-H1734; first compound 0.8 µM) of 0.611 and a relative viability (NCI-H1734; first compound 8 µM) of 0.61. For the same molecule, the relative viability (NCI-H1395; first compound 0.08 µM) was 0.594, the relative viability (NCI-H1395; first compound 0.253 µM) was 0.581 and the relative viability (NCI-H1395; first compound 0.8 µM) was 0.601. For the same molecule, the relative viability (NCI-H1395; first compound 2.53 µM) was 0.577, the relative viability (NCI-H1395; first compound 8 µM) was 0.683 and the relative viability (HARA; first compound 0.08 µM) was 0.458. The relative viability (HARA; first compound 0.253 µM) was 0.624, the relative viability (HARA; first compound 0.8 µM) was 0.566 and the relative viability (HARA; first compound 2.53 µM) was 0.424. The relative viability (HARA; first compound 8 µM) was 0.481, the relative viability (NCI-H1792; first compound 0.08 µM) was 0.775 and the relative viability (NCI-H1792; first compound 0.253 µM) was 0.803. For the same molecule, the relative viability (NCI-H1792; first compound 0.8 µM) was 0.663, the relative viability (NCI-H1792; first compound 2.53 µM) was 0.647 and the relative viability (NCI-H1792; first compound 8 µM) was 0.581. The relative viability (NCI-H1793; first compound 0.08 µM) was 0.227, the relative viability (NCI-H1793; first compound 0.253 µM) was 0.29 and the relative viability (NCI-H1793; first compound 0.8 µM) was 0.248. It also gave a relative viability (NCI-H1793; first compound 2.53 µM) of 0.227, a relative viability (NCI-H1793; first compound 8 µM) of 0.267 and a relative viability (NCI-H2347; first compound 0.08 µM) of 0.421. It also gave a relative viability (NCI-H2347; first compound 0.253 µM) of 0.454, a relative viability (NCI-H2347; first compound 0.8 µM) of 0.297 and a relative viability (NCI-H2347; first compound 2.53 µM) of 0.431. The relative viability (NCI-H2347; first compound 8 µM) was 0.297, the relative viability (NCI-H2009; first compound 0.08 µM) was 0.627 and the relative viability (NCI-H2009; first compound 0.253 µM) was 0.663. For the same molecule, the relative viability (NCI-H2009; first compound 0.8 µM) was 0.734, the relative viability (NCI-H2009; first compound 2.53 µM) was 0.575 and the relative viability (NCI-H2009; first compound 8 µM) was 0.553. The relative viability (NCI-H838; first compound 0.08 µM) was 0.344, the relative viability (NCI-H838; first compound 0.253 µM) was 0.417 and the relative viability (NCI-H838; first compound 0.8 µM) was 0.312. For the same molecule, the relative viability (NCI-H838; first compound 2.53 µM) was 0.339, the relative viability (NCI-H838; first compound 8 µM) was 0.41 and the relative viability (NCI-H2170; first compound 0.08 µM) was 0.78. The relative viability (NCI-H2170; first compound 0.253 µM) was 0.801, the relative viability (NCI-H2170; first compound 0.8 µM) was 0.727 and the relative viability (NCI-H2170; first compound 2.53 µM) was 0.508. It also gave a relative viability (NCI-H2170; first compound 8 µM) of 0.717, a relative viability (SK-MES-1; first compound 0.08 µM) of 0.534 and a relative viability (SK-MES-1; first compound 0.253 µM) of 0.633. It also gave a relative viability (SK-MES-1; first compound 0.8 µM) of 0.601, a relative viability (SK-MES-1; first compound 2.53 µM) of 0.521 and a relative viability (SK-MES-1; first compound 8 µM) of 0.547. For the same molecule, the relative viability (NCI-H1355; first compound 0.08 µM) was 0.402, the relative viability (NCI-H1355; first compound 0.253 µM) was 0.376 and the relative viability (NCI-H1355; first compound 0.8 µM) was 0.335. It also gave a relative viability (NCI-H1355; first compound 2.53 µM) of 0.338, a relative viability (NCI-H1355; first compound 8 µM) of 0.33 and a relative viability (NCI-H1993; first compound 0.08 µM) of 0.539. For the same molecule, the relative viability (NCI-H1993; first compound 0.253 µM) was 0.543, the relative viability (NCI-H1993; first compound 0.8 µM) was 0.548 and the relative viability (NCI-H1993; first compound 2.53 µM) was 0.562. The relative viability (NCI-H1993; first compound 8 µM) was 0.637, the relative viability (HCC-15; first compound 0.08 µM) was 0.633 and the relative viability (HCC-15; first compound 0.253 µM) was 0.765. The relative viability (HCC-15; first compound 0.8 µM) was 0.733, the relative viability (HCC-15; first compound 2.53 µM) was 0.634 and the relative viability (HCC-15; first compound 8 µM) was 0.611. The relative viability (NCI-H2228; first compound 0.08 µM) was 0.554, the relative viability (NCI-H2228; first compound 0.253 µM) was 0.719 and the relative viability (NCI-H2228; first compound 0.8 µM) was 0.538. It also gave a relative viability (NCI-H2228; first compound 2.53 µM) of 0.389, a relative viability (NCI-H2228; first compound 8 µM) of 0.544 and a relative viability (NCI-H522; first compound 0.08 µM) of 0.765. The relative viability (NCI-H522; first compound 0.253 µM) was 0.685, the relative viability (NCI-H522; first compound 0.8 µM) was 0.722 and the relative viability (NCI-H522; first compound 2.53 µM) was 0.723. The relative viability (NCI-H522; first compound 8 µM) was 0.803.

Source: the supplement of paper PMC10307832
